Data on 7 compounds can be found in publication PMC12431657, “Discovery and mechanistic insights of dibenzoylmethane as a broad spectrum inhibitor of coronavirus” (PLOS Pathogens, 2025).

The subject of data set [1] is HCoV-OC43. The conditions noted are these: for number of viral RNA copies in HCoV-OC43-infected mice: columbianadin 50 mpk QD, erythromycin estolate 300 mpk QD.
For data set [2], the system named is HCoV-229E. As to the kind of experiment: Antiviral activity in vitro, qRT-PCR, HCoV-229E in MRC-5 cells. Conditions: for EC50: Human coronavirus 229E, MRC5, 24 h, read-out: EC50 HCoV-229E (MRC-5); for HCoV-229E, MRC-5: inhibition at the concentration (Fig2B): replicates. The data set is classed as cell-based. For orientation: Quantitative PCR measures a nucleic acid by following its amplification.

The subject of data set [3] is HCoV-229E. As to the kind of experiment: Antiviral activity in vitro, viral RNA copies by qRT-PCR, HCoV-229E in Huh-7 cells. The data set is classed as cell-based. Conditions: for EC50: Human coronavirus 229E, Huh-7, 24 h, read-out: EC50 HCoV-229E (Huh-7).
The test system of another data set is airway inflammation. Conditions: 50 mpk; cited from earlier work.
The subject of data set [4] is HCoV-OC43. Briefly: Antiviral activity in vitro, qRT-PCR, HCoV-OC43 in RD cells. The data set is classed as cell-based. The conditions noted are these: for EC50: Betacoronavirus 1, OC43, RD, 24 h, read-out: EC50 HCoV-OC43 (RD).
For data set [5], the system named is HCoV-OC43. As to the kind of experiment: Antiviral activity in vitro, qRT-PCR, HCoV-OC43 in Huh-7 cells. The class given is cell-based. Conditions: for EC50: Betacoronavirus 1, OC43, Huh-7, 24 h, read-out: EC50 HCoV-OC43 (Huh-7); for HCoV-OC43, Huh-7: inhibition at the concentration (Fig2B): replicates.
For data set [6] the following is noted: erythromycin estolate exceeding 300 mpk, veratramine exceeding 10 mpk; cited from earlier work.
For data set [7], the system named is HCoV-OC43. Briefly: HCoV-OC43 nucleocapsid protein and caspase-6 in infected cells (Western blot). The class given is cell-based. Conditions: cells pretreated with serially diluted compound. On the technique in general: A western blot detects proteins with antibodies after separation by electrophoresis.
Another data set deals with T1, caspase-6 (Homo sapiens, UniProt P55212).
T1 construct: endogenous in cells
T1 sequence (P55212 24-293): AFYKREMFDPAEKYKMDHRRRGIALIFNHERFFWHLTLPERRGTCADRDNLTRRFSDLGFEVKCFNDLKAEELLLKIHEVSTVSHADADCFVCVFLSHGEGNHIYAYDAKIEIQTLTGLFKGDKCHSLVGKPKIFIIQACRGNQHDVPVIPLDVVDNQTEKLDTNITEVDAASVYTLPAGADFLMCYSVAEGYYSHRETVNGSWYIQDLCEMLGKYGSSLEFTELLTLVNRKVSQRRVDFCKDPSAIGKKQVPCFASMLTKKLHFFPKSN
The class given is cell-based.

The subject of data set [8] is HCoV-OC43. The data set is classed as cell-based.
In data set [9] the test system is Huh-7 cells. Briefly: Cytotoxicity assay (CCK-8), Huh-7 cells.
Data set [10] concerns Huh-7 cells. Further details: unit not given beside the values.
Setting [11] is: conc. 0.1 (unit not given), replicates.
Setting [12] is: conc. 0.2 (unit not given), replicates.
The mark [13] stands for this setting: conc. 0.7 (unit not given), replicates.
Where [14] appears, read: conc. 2.2 (unit not given), replicates.
[15] abbreviates: conc. 6.7 (unit not given), replicates.
Where [16] appears, read: conc. 20 (unit not given), replicates.

Where “and” joins values, the source holds several entries; their conditions need not be identical. Identical values can stand only once. Like-named read-outs stand apart in the source and are kept apart here. Peptide text beside a SMILES is read from it. * marks the point of attachment. Cbz = O=C(OCc1ccccc1)*; CH2F = FC*

On to `C/C=C(/C)C(=O)OC(C)(C)[C@@H]1Cc2c(ccc3ccc(=O)oc23)O1` [Columbianadin, columbianadin], for which the Body weight changes in the data set with HCoV-OC43 [1] (Columbianadin 50 mpk oral QD, day 0, one value per mouse) is 99.0 (4×) and 102.0 (2×). In addition, the “number of viral RNA copies in HCoV-OC43-infected mice” value in the data set on HCoV-OC43 [1] was “did not significantly reduce”. Moreover, the EC50 in the data set with HCoV-229E [2] was 1550 nM; in the data set on HCoV-229E [3], under 80 nM; in the data set with HCoV-OC43 [4], 2220 nM; in the data set on HCoV-OC43 [5], 190 nM. Also, the “HCoV-229E, MRC-5: inhibition at the concentration (Fig2B)” value was 35.3 and 18.1 and 41.4 in the data set with HCoV-229E [2] (conc. 0.1 (unit not given)); 32.0 and 58.2 in the data set on HCoV-229E [2] (conc. 0.2 (unit not given)); 17.5 and 18.6 and 52.2 with HCoV-229E [2] (conc. 0.7 (unit not given)); 63.2 and 52.3 and 54.8 with HCoV-229E [2] (conc. 2.2 (unit not given)); 83.3 and 82.1 and 80.5 in the data set with HCoV-229E [2] (conc. 6.7 (unit not given)); 94.9 and 92.9 and 95.1 in the data set on HCoV-229E [2] (conc. 20.0 (unit not given)). Also, the “EC50 (229E, Huh-7): inhibition at the concentration” value (“EC50 (229E, Huh-7): inhibition” below) was 58.8 and 59.6 and 58 with HCoV-229E [3] (setting [11]); 70.5 and 77.4 and 76.1 in the data set with HCoV-229E [3] (setting [12]); 68 and 72.5 and 61.2 with HCoV-229E [3] (setting [13]); 74.2 and 70.6 and 86.9 in the data set with HCoV-229E [3] (setting [14]); 89.7 and 91.5 and 80.4 in the data set on HCoV-229E [3] (setting [15]); 92.4 and 94.9 and 95 in the data set on HCoV-229E [3] (setting [16]). Moreover, the “airway inflammation in mice” value with airway inflammation is reported as “suppress airway inflammation”. The “EC50 (OC43, RD): inhibition at the concentration” value (“EC50 (OC43, RD): inhibition” below) with HCoV-OC43 [4] (setting [11]) is -25.3 and -42.7 and -34.3; with HCoV-OC43 [4] (setting [13]), -23.9 and 2.7 and -3.5; in the data set on HCoV-OC43 [4] (setting [14]) it was 49.6 and 48.7 and 52.3; with HCoV-OC43 [4] (setting [15]) it was 93.7 and 94.2 and 94.0; in the data set on HCoV-OC43 [4] (setting [16]), 99.8. Further, the “HCoV-OC43, Huh-7: inhibition at the concentration (Fig2B)” value with HCoV-OC43 [5] (conc. 0.1 (unit not given)) is 48.4 and 50.8 (2×); with HCoV-OC43 [5] (conc. 0.2 (unit not given)) it was 30.0 and 36.0 and 38.1; in the data set on HCoV-OC43 [5] (conc. 0.7 (unit not given)), 73.5 and 75.0 and 75.6; in the data set on HCoV-OC43 [5] (conc. 2.2 (unit not given)), 94.2 and 94.1 and 94.4; with HCoV-OC43 [5] (conc. 6.7 (unit not given)), 98.5 (2×) and 98.6; in the data set on HCoV-OC43 [5] (conc. 20.0 (unit not given)) it was 98.4 and 98.3 (2×).
As for `CCC(=O)O[C@H]1[C@H](O[C@@H]2[C@@H](C)[C@H](O[C@H]3C[C@@](C)(OC)[C@@H](O)[C@H](C)O3)[C@@H](C)C(=O)O[C@H](CC)[C@@](C)(O)[C@H](O)[C@@H](C)C(=O)[C@H](C)C[C@@]2(C)O)O[C@H](C)C[C@@H]1N(C)C` [Erythromycin estolate, erythromycin estolate, reference compound], the “number of viral RNA copies in HCoV-OC43-infected mice” value in the data set on HCoV-OC43 [1] was “did not significantly reduce”. For the same compound, the EC50 in the data set on HCoV-229E [2] worked out at 9210 nM; in the data set with HCoV-229E [3] it was 3040 nM; in the data set with HCoV-OC43 [4], 460 nM; in the data set with HCoV-OC43 [5], 730 nM. Also, the “HCoV-229E, MRC-5: inhibition at the concentration (Fig2B)” value in the data set with HCoV-229E [2] (conc. 0.1 (unit not given)) was 0.6 and 0.5 and 1.3; in the data set with HCoV-229E [2] (conc. 0.2 (unit not given)) it was 18.6 and 2.4 and -3.2; in the data set with HCoV-229E [2] (conc. 0.7 (unit not given)), 2.2 and 1.5 and 26.7; with HCoV-229E [2] (conc. 2.2 (unit not given)) it was 3.2 and -1.4 and 0.1; in the data set with HCoV-229E [2] (conc. 6.7 (unit not given)), 0.7 and 0.9 and 1.2; in the data set on HCoV-229E [2] (conc. 20.0 (unit not given)) it was 90.1 and 91.7 and 86.2. Besides, the “EC50 (229E, Huh-7): inhibition” value is 56.8 and 60.1 and 43.4 with HCoV-229E [3] (setting [11]); 31.4 and 41.8 and 52.9 in the data set with HCoV-229E [3] (setting [12]); 61.1 and 42.4 and 25.7 in the data set on HCoV-229E [3] (setting [13]); 61.7 and 57.1 and 74.9 in the data set with HCoV-229E [3] (setting [14]); 79.9 and 80.4 and 68.3 in the data set with HCoV-229E [3] (setting [15]); 82.8 and 90.2 and 91.5 with HCoV-229E [3] (setting [16]). Moreover, the “EC50 (OC43, RD): inhibition” value in the data set on HCoV-OC43 [4] (setting [11]) was -62.2 and -76.2 (2×); in the data set on HCoV-OC43 [4] (setting [12]) it was 31.5 and 23.3 and 28; in the data set with HCoV-OC43 [4] (setting [13]), 73.9 and 79.2 and 79.3; with HCoV-OC43 [4] (setting [14]) it was 69.6 and 71.7 and 71.9; with HCoV-OC43 [4] (setting [15]), 83.9 and 85 and 84.5; with HCoV-OC43 [4] (setting [16]), 98.4 and 98.5. For the same compound, in data set [6], the “safe use in antitumour mouse models” value was “safely used”. Also, the “HCoV-OC43, Huh-7: inhibition at the concentration (Fig2B)” value is 18.4 and 11.5 and -3.5 with HCoV-OC43 [5] (conc. 0.2 (unit not given)); 62.9 and 63.5 and 57.4 in the data set on HCoV-OC43 [5] (conc. 0.7 (unit not given)); 73.5 and 73.6 and 72.3 with HCoV-OC43 [5] (conc. 2.2 (unit not given)); 95.6 and 95.5 and 95.7 in the data set on HCoV-OC43 [5] (conc. 6.7 (unit not given)); 98.3 (2×) and 98.1 in the data set on HCoV-OC43 [5] (conc. 20.0 (unit not given)).
In the data set on HCoV-OC43 [1] (mouse, in vivo), `Cc1c([C@H](C)[C@@H]2NC[C@@H](C)C[C@H]2O)ccc2c1C[C@H]1[C@H]2CC=C2C[C@@H](O)CC[C@@]21C` [Veratramine, veratramine] yielded a Body weight changes of 98.5. For the same compound, the EC50 was 600 nM with HCoV-229E [2], under 80 nM in the data set with HCoV-229E [3], 250 nM in the data set on HCoV-OC43 [4] and under 80 nM with HCoV-OC43 [5]. The “EC50 (229E, Huh-7): inhibition” value with HCoV-229E [3] is on record as 93.4. The “EC50 (OC43, RD): inhibition” value with HCoV-OC43 [4] is 99.8 and 99.2. Further, the “safe use in antitumour mouse models” value in data set [6] is listed as “safely used”.
With `CC[C@H](C)[C@H](NC(=O)[C@H](CCC(=O)OC)NC(=O)[C@@H](NC(=O)OCc1ccccc1)C(C)C)C(=O)N[C@@H](CC(=O)OC)C(=O)CF` [Z-VEID-FMK, reference compound] (Cbz-VE(OMe)ID(OMe)-CH2F), in the data set with HCoV-OC43 [7], the “virus replication (nucleocapsid protein, Western blot)” value is given as “inhibited virus replication”. Also, the “Caspase-6 activity (Fig5J)” value at caspase-6 (time point 0, replicates) was 8.3 and 9.2 and 8.8; at caspase-6 (time point 2, replicates), 12.5 and 11.5 and 12.1; on caspase-6 (time point 4, replicates), 11.7 and 13.0 (2×); on caspase-6 (time point 6, replicates), 9.9 and 10.2 and 9.5; on caspase-6 (time point 8, replicates), 9.8 and 9.0 and 8.1. In addition, in the data set on HCoV-OC43 [8] (RD cells), the “antiviral activity in CASP6 knockout cell pools” value is reported as “decreased”. Further, the “Viral inhibition (Fig5K)” value in the data set on HCoV-OC43 [8] (concentration 2, RD-Scramble cells) is 58.3 and 64.9 and 64.7; in the data set on HCoV-OC43 [8] (concentration 20, RD-Scramble cells) it was 67.9 and 79.5 and 81.6.
Take `CCC/C=C1\OC(=O)C2=C1CC[C@H]1[C@H]3C=C4C(=O)O/C(=C\CCC)[C@@]4(CC3)[C@@H]21` [levistolide A]: the “selectivity index (SI)” value with Huh-7 cells [9] is “below 25”. In the data set on Huh-7 cells [10], the “CC50 (Huh-7): dose-response value per replicate” value is reported as 17.6.
The corresponding values for `COc1c(CC=C(C)C)c(O)cc2oc(=O)c3c4ccc(O)cc4oc3c12` [neoglycyrol] are “below 25” and 37.8.
On to `COc1ccc2cc1Oc1ccc(cc1)C[C@H]1c3cc(c(OC)cc3CCN1C)Oc1c(OC)c(OC)cc3c1[C@H](C2)N(C)CC3` [tetrandrine], for which the “selectivity index (SI)” value in the data set on Huh-7 cells [9] is “below 25”. The “CC50 (Huh-7): dose-response value per replicate” value in the data set with Huh-7 cells [10] (human) is reported as 114.8.

A word on the EC50: it is the concentration that produces a half-maximal response.
